The target in test [1] is T1, Estrogen receptor (Homo sapiens) (UniProt P03372).
T1 sequence (whole entry): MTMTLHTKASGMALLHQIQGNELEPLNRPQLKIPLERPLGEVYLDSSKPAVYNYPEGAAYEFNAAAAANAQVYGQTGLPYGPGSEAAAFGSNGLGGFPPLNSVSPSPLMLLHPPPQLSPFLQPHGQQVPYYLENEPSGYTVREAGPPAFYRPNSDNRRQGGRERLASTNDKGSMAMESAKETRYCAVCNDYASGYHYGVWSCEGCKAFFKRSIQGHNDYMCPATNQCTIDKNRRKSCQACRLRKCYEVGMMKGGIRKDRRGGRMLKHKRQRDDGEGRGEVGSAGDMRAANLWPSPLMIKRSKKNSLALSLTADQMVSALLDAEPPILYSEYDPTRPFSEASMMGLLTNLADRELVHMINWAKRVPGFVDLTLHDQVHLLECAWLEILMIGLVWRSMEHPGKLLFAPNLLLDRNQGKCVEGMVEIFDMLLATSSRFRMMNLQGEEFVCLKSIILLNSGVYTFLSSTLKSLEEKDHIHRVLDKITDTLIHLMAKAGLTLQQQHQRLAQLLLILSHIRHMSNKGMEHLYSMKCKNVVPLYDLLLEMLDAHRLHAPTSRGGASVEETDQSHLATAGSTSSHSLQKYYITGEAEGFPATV
Kind of test: Ratio of estradiol IC50 to compound IC50 for ERalpha receptor by relative binding affinity assay.

Test [2] deals with Estrogen receptor beta (Homo sapiens) (UniProt Q92731). Kind of test: Ratio of estradiol IC50 to compound IC50 for ERbeta receptor by relative binding affinity assay.
Test [3] can be described thus: Relative binding affinity to estrogen receptor relative to estradiol.

Chain of Estrogen receptor beta (Homo sapiens) (Q92731 whole entry): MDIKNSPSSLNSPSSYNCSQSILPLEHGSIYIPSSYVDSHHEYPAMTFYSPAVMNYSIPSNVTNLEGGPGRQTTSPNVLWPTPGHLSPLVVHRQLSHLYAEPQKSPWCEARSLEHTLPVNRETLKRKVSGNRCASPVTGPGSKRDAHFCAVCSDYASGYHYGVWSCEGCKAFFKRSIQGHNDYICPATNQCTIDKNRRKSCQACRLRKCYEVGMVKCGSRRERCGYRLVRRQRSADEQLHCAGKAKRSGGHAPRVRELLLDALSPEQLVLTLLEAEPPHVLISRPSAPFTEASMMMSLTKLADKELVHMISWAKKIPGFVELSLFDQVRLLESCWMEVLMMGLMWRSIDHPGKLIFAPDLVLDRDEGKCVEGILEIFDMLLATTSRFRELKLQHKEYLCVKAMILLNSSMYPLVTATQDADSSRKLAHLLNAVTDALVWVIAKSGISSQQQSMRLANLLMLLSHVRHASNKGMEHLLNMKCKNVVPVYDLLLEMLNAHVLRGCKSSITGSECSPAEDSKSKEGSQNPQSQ

For the compound `CCN(B(c1c(C)cc(C)cc1C)c1c(C)cc(C)cc1C)c1ccc(O)cc1`, the results for the Ratio IC50 in test [1] and in test [2] were 1.3 and 1.1, respectively.
In turn, `Oc1ccc(-c2cc(-c3ccc(O)cc3)n(-c3ccccc3)n2)cc1` yielded an RBA in test [3] of 0.03%.
With `Cc1cccc(C)c1B(c1c(C)cccc1C)N(C)c1ccc(O)cc1`, the Ratio IC50 was determined as 23 in test [1] and 16 in test [2].
In the same order, the values of `Cc1cccc(C)c1B(c1c(C)cccc1C)N(CC(F)(F)F)c1ccc(O)cc1` are 10 and 5.8.
In test [3], `Oc1ccc(-c2cc(-c3ccc(O)cc3)[nH]n2)cc1` gave an RBA of 0.009%.
For the compound `CCc1c(-c2ccc(O)cc2)nc(-c2ccccc2)n1-c1ccc(O)cc1`, in test [3], the RBA stood at 0.37%.
In turn, `CCn1c(-c2ccc(O)cc2)nc(-c2ccc(O)cc2)c1-c1ccc(O)cc1` returned an RBA in test [3] of 0.38%.
As to `Cc1cc(C)c(B(c2c(C)cc(C)cc2C)N(CC(F)(F)F)c2ccc(O)cc2)c(C)c1`, the Ratio IC50 is 2.2 in test [1] and 1.3 in test [2].
Taken in the same sequence, the figures for `CCCCCN(B(c1c(C)cc(C)cc1C)c1c(C)cc(C)cc1C)c1ccc(O)cc1` were 0.16 and 0.12.
For `CCc1c(-c2ccc(O)cc2)nn(-c2ccc(O)cc2)c1-c1ccc(O)cc1`, the RBA in test [3] worked out at 19%.
Same read-out and setting: the figure for `CCc1c(-c2ccc(O)cc2)nn(-c2ccccc2)c1-c1ccc(O)cc1` is 14%.
On to `Cc1cc(C)c(B(Nc2ccc(O)cc2)c2c(C)cc(C)cc2C)c(C)c1`, for which the Ratio IC50 in test [1] was determined as 0.013; in test [2], 0.18.
`CCc1c(-c2ccc(O)cc2)n[nH]c1-c1ccc(O)cc1`: the RBA in test [3] is 0.02%.
As to `Cc1cc(C)c(B(c2c(C)cc(C)cc2C)N(C)c2ccc(O)cc2)c(C)c1`, the Ratio IC50 amounted to 1.3 in test [1] and 3.1 in test [2].
`CCn1c(-c2ccc(O)cc2)nc(-c2ccccc2)c1-c1ccc(O)cc1` had an RBA in test [3] of 0.25%.
